Results from article doi:10.1101/2022.05.31.494145v5 (biorxiv, 2024).

Key:
[1] = target: T1, CHIKV nsP1 (Chikungunya virus strain S27-African prototype, UniProt Q8JUX6); assay: tryptophan fluorescence quenching; assay type: binding
T1 sequence (Q8JUX6 1-535): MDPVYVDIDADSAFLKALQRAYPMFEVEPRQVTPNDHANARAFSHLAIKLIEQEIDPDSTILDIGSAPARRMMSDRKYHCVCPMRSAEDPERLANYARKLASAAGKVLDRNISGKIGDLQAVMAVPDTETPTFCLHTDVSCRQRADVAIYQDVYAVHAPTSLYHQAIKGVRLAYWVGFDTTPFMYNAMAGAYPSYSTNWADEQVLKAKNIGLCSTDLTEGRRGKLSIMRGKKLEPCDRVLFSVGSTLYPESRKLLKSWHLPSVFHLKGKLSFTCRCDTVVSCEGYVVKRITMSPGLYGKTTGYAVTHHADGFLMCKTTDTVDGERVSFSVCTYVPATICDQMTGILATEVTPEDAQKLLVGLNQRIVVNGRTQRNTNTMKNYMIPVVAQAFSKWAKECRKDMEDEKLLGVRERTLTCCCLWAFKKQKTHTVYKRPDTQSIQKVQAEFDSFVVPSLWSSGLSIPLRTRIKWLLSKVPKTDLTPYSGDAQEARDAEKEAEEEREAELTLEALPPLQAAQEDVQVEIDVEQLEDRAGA

[2] = target: T2, DENV 3 NS5 MTase (dengue virus type 3, UniProt A9LID6); assay: tryptophan fluorescence quenching; assay type: binding
T2 sequence (A9LID6 2491-2755 limits assumed): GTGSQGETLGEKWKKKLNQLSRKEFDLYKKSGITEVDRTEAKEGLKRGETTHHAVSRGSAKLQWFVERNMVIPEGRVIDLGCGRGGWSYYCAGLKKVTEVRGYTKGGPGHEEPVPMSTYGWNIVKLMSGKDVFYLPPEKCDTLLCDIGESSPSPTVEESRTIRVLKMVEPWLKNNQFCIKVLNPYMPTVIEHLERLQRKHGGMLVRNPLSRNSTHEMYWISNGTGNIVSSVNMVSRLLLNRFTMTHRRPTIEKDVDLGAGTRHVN

| SMILES | Kd [1] | Kd [2] |
| --- | --- | --- |
| O=C(/C=C/c1ccc(O)c(O)c1)OCCc1ccccc1 [CAPE, caffeic acid phenethyl ester] | 30.6 ± 5.33 µM | 37.9 ± 6.32 µM |
| Nc1nc2c(ncn2[C@@H]2O[C@H](COP(=O)(O)OP(=O)(O)OP(=O)(O)O)[C@@H](O)[C@H]2O)c(=O)[nH]1 [GTP] | 169 ± 21.3 µM | 3.03 ± 1 µM |
| O=c1c(O)c(-c2ccc(O)cc2)oc2c(O)c(O)cc(O)c12 [HC, herbacetin] | 6.52 ± 0.55 µM | 13.3 ± 2.69 µM |
| C[S+](CC[C@H](N)C(=O)O)C[C@H]1O[C@@H](n2cnc3c(N)ncnc32)[C@H](O)[C@@H]1O (some centres unmarked) [SAM] | 10.9 ± 5.15 µM | 6.67 ± 2.57 µM |
